We go through two compounds from patent publication US20200155650A1, “Combination treatment of NAFLD and NASH” (CymaBay Therapeutics, Inc., priority 2018, published 2020).

In one assay the target is T1, PPARα (Homo sapiens, UniProt Q07869).
T1 sequence (Q07869 1-468): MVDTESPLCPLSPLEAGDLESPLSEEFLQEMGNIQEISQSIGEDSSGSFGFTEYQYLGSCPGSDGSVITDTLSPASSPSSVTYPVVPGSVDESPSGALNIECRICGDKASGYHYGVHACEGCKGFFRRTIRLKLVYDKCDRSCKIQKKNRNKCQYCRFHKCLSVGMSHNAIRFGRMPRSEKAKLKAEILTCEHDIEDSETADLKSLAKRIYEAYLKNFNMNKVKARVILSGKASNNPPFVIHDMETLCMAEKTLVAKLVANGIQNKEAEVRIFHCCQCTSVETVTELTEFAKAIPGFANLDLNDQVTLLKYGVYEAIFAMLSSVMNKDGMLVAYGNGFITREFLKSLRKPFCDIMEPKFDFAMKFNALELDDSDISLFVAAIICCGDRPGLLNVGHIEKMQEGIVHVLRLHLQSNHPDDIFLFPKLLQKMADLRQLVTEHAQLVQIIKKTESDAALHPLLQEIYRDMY
The following applies: cited from earlier work.

The subject of assay [1] is Alms1 mutant (fozlfoz) mice. Particulars: 10 mg/Kg by gavage for 8 weeks, cited from earlier work.
The subject of assay [2] is subjects with liver biopsy-proven NASH. In words: Example 3, clinical, single agent seladelpar in biopsy-proven NASH. It is filed as in vivo, human. Particulars: 10, 20, and 50 mg/day for 52 weeks. On the procedure:
One hundred seventy-five subjects with liver biopsy-proven NASH are treated with doses of 10, 20, and 50 mg/day, or placebo (2:2:2:1 randomization) for 52 weeks. Subjects are permitted their usual other medications (e.g. antidiabetic medications such as metformin or […]) but not glitazones, PPAR agonists, OCA, or similar medications. […] The primary efficacy outcome is the change in baseline in liver fat content at 12 weeks, as measured by magnetic resonance imaging-derived proton density fat fraction (MRI-PDFF). Other outcome measures include histological improvement in NASH and fibrosis, assessed by comparing liver biopsy samples at baseline and at 52 weeks after the start of dosing; MRI-PDFF at 26 and 52 weeks; and measurements of total cholesterol, HDL-C, LDL-C, VLDL-C, TGs, apoB, and liver transaminases. The subjects also maintain health diaries, which are reviewed at each visit.

Broadly, the EC50 is the concentration giving half of the maximal effect. Take `CSc1ccc(C(=O)/C=C/c2cc(C)c(OC(C)(C)C(=O)O)c(C)c2)cc1` [elafibranor]: the EC50 on PPARα was 6 nM.
As for `CCO[C@H](COc1ccc(C(F)(F)F)cc1)CSc1ccc(OCC(=O)O)c(C)c1` [Seladelpar, (R)-2-(4-((2-ethoxy-3-(4-(trifluoromethyl)phenoxy)propyl)-sulfanyl)-2-methylphenoxy)acetic acid], the “mean nonalcoholic fatty liver disease activity score (NAS)” value in assay [1] (vehicle 6.9) was 3.13. In assay [1] (vehicle 300-600 U/L), the “reduction of serum alanine aminotransferase” value was 50%. Also, the “hyperglycemia, hyperinsulinemia, and glucose disposal” value in assay [1] was “normalized”. In assay [2], the “improvement in disease (MRI-PDFF, liver biopsy, NAS score)” value is recorded as “dose-related improvement in their disease”.
